In article PMC7470033, “In vitro inhibitory effect of lysionotin on the activity of cytochrome P450 enzymes” (Pharmaceutical Biology, 2020):

Experiments:
Format in all cases: in vitro ADME
CYP2A6 = molecular target: T1, CYP2A6 (Homo sapiens, UniProt P11509); assay: CYP2A6 inhibition in pooled human liver microsomes (coumarin 7-hydroxylation); conditions: 100 μM lysionotin, pooled HLMs, p > 0.05
T1 construct: Pooled HLMs were purchased from BD Biosciences Discovery Labware; tissue BD Biosciences Discovery Labware; host or cells: pooled human liver microsomes
T1 sequence (P11509 1-494): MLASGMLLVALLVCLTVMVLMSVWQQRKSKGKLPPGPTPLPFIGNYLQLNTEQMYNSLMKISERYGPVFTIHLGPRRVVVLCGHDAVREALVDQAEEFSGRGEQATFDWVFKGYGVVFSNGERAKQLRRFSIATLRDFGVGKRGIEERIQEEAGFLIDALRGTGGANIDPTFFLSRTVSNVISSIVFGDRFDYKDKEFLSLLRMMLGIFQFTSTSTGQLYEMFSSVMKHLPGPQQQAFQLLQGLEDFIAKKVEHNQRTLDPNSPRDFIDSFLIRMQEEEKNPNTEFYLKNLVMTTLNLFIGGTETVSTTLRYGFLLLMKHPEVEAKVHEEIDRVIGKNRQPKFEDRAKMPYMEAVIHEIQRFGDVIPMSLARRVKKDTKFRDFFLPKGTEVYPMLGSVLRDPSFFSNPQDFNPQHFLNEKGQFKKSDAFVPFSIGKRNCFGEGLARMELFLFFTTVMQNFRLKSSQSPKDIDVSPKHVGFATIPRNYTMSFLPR
Experimental: (§1) In this study, lysionotin was incubated with eight CYP isoforms (i.e., 1A2, 3A4, 2A6, 2E1, 2D6, 2C9, 2C19 and 2C8) in pooled human liver microsomes to investigate the interaction between lysionotin and CYPs, which can provide direct evidence for the effect of lysionotin on the activity of CYPs. In vitro, phenacetin (CYP1A2), testosterone (CYP3A4), coumarin (CYP2A6), chlorzoxazone (CYP2E1), dextromethorphan (CYP2D6), diclofenac (CYP2C9), S-mephenytoin (CYP2C19) and paclitaxel (CYP2C8) were used as probe substrates to determine the effects of lysionotin on eight CYP enzymes. In addition, enzyme kinetic studies were conducted to determine the inhibition model of lysionotin on CYP enzymes. […]
(§2) The concentration of lysionotin was 100 μM, and the positive inhibitor concentrations were as follows: 10 μM furafylline for CYP1A2, 1 μM ketoconazole for CYP3A4, 10 μM tranylcypromine for CYP2A6, 50 μM clomethiazole for CYP2E1, 10 μM quinidine for CYP2D6, 10 μM sulfaphenazole for CYP2C9, 50 μM tranylcypromine for CYP2C19, 5 μM montelukast for CYP2C8. […] The instrument used in this study was Agilent 1260 series instrument with DAD and FLD detector, and the quantitative assay for the corresponding metabolites was performed as previously reported and the detection conditions are summarised in Table 2 (He et al. [2015]; Lang et al. [2017]; Zhang et al. [2017]). […]

CYP2C19 = molecular target: T2, CYP2C19 (Homo sapiens, UniProt P33261); assay: CYP2C19 inhibition in pooled human liver microsomes (S-mephenytoin 4-hydroxylation); conditions: for inhibition model of CYP2C19: Lineweaver-Burk plots
T2 construct: Pooled HLMs were purchased from BD Biosciences Discovery Labware; tissue BD Biosciences Discovery Labware; host or cells: pooled human liver microsomes
T2 sequence (P33261 whole entry): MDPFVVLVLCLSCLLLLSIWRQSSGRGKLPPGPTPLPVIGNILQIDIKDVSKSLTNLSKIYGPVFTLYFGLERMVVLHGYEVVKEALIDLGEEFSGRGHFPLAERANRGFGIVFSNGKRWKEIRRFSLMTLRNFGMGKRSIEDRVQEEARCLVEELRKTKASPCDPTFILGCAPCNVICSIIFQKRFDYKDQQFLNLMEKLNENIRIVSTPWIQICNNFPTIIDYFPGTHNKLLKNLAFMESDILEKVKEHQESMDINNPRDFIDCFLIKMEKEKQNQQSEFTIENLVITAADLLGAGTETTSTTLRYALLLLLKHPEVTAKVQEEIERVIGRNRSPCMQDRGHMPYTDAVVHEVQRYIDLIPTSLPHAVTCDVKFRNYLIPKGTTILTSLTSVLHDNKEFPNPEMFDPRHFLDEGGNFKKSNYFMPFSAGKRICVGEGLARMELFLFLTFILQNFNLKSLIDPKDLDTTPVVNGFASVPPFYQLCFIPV
Experimental: In this study, lysionotin was incubated with eight CYP isoforms (i.e., 1A2, 3A4, 2A6, 2E1, 2D6, 2C9, 2C19 and 2C8) in pooled human liver microsomes to investigate the interaction between lysionotin and CYPs, which can provide direct evidence for the effect of lysionotin on the activity of CYPs. In vitro, phenacetin (CYP1A2), testosterone (CYP3A4), coumarin (CYP2A6), chlorzoxazone (CYP2E1), dextromethorphan (CYP2D6), diclofenac (CYP2C9), S-mephenytoin (CYP2C19) and paclitaxel (CYP2C8) were used as probe substrates to determine the effects of lysionotin on eight CYP enzymes. In addition, enzyme kinetic studies were conducted to determine the inhibition model of lysionotin on CYP enzymes.
All incubations were performed in triplicate, and the mean values were utilised. The typical incubation systems contained 100 mM potassium phosphate buffer (pH 7.4), NADPH generating system (1 mM NADP^+, 10 mM glucose-6-phosphate, 1 U/mL of glucose-6-phosphate dehydrogenase, and 4 mM MgCl2), the appropriate concentration of HLMs, a corresponding probe substrate and lysionotin (or positive inhibitor for different probe reactions) in a final volume of 200 μL.
The concentration of lysionotin was 100 μM, and the positive inhibitor concentrations were as follows: 10 μM furafylline for CYP1A2, 1 μM ketoconazole for CYP3A4, 10 μM tranylcypromine for CYP2A6, 50 μM clomethiazole for CYP2E1, 10 μM quinidine for CYP2D6, 10 μM sulfaphenazole for CYP2C9, 50 μM tranylcypromine for CYP2C19, 5 μM montelukast for CYP2C8. Probe substrates, positive inhibitors (except for dextromethorphan and quinidine, which were dissolved in water), and lysionotin were dissolved in methanol, with a final concentration of 1% (v/v), and 1% neat methanol was added to the incubations without inhibitor. There was a 3 min preincubation period (at 37 °C) before the reaction was initiated by adding an NADPH-generating system. The reaction was terminated by adding a 100 μL acetonitrile (10% trichloroacetic acid for CYP2A6) internal standard mix, and the solution was placed on ice. The mixture was centrifuged at 12,000 rpm for 10 min, and an aliquot (50 μL) of supernatant was transferred for HPLC analysis. The instrument used in this study was Agilent 1260 series instrument with DAD and FLD detector, and the quantitative assay for the corresponding metabolites was performed as previously reported and the detection conditions are summarised in Table 2 (He et al. [2015]; Lang et al. [2017]; Zhang et al. [2017]). […]
The enzyme kinetic parameters for the probe reaction were estimated from the best fit line, using least-squares linear regression of the inverse substrate concentration versus the inverse velocity (Lineweaver-Burk plots), and the mean values were used to calculate Vmax and Km. Inhibition data from the experiments that were conducted using multiple compound concentrations were represented by Dixon plots, and inhibition constant (Ki) values were calculated using non-linear regression according to the following equation: v=(VmaxS)/(Km(1+I/Ki+S)for competitive inhibition v=(VmaxS)/[(Km+S((1+I/Ki)] for non-competitive inhibition where I is the concentration of the compound, Ki is the inhibition constant, S is the concentration of the substrate, and Km is the substrate concentration at half the maximum velocity (Vmax) of the reaction. The mechanism of the inhibition was inspected using the Lineweaver-Burk plots and the enzyme inhibition models. […]

CYP2C9 = molecular target: T3, CYP2C9 (Homo sapiens, UniProt P11712); assay: CYP2C9 inhibition in pooled human liver microsomes (diclofenac 4′-hydroxylation); conditions: 100 μM lysionotin, pooled HLMs, p > 0.05
T3 construct: Pooled HLMs were purchased from BD Biosciences Discovery Labware; tissue BD Biosciences Discovery Labware; host or cells: pooled human liver microsomes
T3 sequence (P11712 whole entry): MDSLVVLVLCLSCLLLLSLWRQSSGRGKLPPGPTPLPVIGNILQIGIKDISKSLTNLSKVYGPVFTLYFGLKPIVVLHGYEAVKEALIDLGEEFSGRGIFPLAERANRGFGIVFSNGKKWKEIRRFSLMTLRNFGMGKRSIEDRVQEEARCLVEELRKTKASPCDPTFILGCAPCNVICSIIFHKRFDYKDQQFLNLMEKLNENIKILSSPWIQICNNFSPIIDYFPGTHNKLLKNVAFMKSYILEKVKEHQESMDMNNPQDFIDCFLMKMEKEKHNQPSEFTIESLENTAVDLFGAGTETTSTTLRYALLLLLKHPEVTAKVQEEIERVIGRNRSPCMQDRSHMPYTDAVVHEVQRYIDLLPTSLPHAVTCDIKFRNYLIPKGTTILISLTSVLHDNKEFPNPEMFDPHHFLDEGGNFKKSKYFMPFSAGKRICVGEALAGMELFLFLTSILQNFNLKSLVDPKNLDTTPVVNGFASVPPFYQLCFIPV
Experimental: as §1, §2

CYP1A2 = molecular target: T4, CYP1A2 (Homo sapiens, UniProt P05177); assay: CYP1A2 inhibition in pooled human liver microsomes (phenacetin O-deethylation); conditions: 100 μM lysionotin, pooled HLMs, p > 0.05
T4 construct: Pooled HLMs were purchased from BD Biosciences Discovery Labware; tissue BD Biosciences Discovery Labware; host or cells: pooled human liver microsomes
T4 sequence (P05177 1-516): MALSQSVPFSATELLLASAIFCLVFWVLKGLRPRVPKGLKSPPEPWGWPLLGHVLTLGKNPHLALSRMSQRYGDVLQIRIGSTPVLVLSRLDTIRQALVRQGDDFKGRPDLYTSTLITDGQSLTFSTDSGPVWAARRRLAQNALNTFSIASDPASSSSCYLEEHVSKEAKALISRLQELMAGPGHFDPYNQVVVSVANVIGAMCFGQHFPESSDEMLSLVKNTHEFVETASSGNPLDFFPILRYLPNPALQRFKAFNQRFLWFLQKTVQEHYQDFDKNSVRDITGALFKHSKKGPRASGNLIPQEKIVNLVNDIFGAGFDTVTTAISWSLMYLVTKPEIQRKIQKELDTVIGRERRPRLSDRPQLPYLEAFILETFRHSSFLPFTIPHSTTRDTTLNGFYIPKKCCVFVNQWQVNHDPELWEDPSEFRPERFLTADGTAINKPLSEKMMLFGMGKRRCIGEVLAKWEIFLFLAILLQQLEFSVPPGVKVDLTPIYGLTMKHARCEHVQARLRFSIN
Experimental: as §1, §2

CYP3A4 = molecular target: T5, CYP3A4 (Homo sapiens, UniProt P08684); assay: Time-dependent inhibition study of CYP3A4 in HLMs
T5 construct: Pooled HLMs were purchased from BD Biosciences Discovery Labware; tissue BD Biosciences Discovery Labware; host or cells: pooled human liver microsomes
T5 sequence (P08684 whole entry): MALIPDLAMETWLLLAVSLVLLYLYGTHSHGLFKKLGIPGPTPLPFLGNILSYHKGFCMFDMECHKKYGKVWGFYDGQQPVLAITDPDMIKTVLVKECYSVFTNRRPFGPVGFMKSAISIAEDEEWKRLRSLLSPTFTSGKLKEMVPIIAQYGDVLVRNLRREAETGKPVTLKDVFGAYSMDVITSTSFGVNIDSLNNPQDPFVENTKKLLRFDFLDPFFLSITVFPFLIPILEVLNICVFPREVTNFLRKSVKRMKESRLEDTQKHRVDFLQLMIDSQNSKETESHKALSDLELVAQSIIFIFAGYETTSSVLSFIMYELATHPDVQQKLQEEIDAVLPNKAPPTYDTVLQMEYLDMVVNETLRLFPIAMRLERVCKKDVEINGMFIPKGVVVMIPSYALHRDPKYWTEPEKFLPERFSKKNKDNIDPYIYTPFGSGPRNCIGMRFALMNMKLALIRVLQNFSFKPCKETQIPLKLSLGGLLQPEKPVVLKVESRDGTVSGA
Experimental: To determine whether lysionotin could inhibit the activity of CYP3A4, 2C19, and 2C8 in a time-dependent manner, lysionotin (20 μM) was pre-incubated with HLMs (1 mg/mL) in the presence of an NADPH-generating system for 30 min at 37 °C. After incubation, an aliquot (20 μL) was transferred to another incubation tube (final volume 200 μL) containing an NADPH-generating system and probe substrates whose final concentrations were approximate to Km. Then, further incubations were performed to measure the residual activity. After being incubated for 0, 5, 10, 15, and 30 min, the reactions were terminated by adding a 100 μL acetonitrile internal standard mix and then placed on ice; the corresponding metabolites were determined by HPLC.
To determine the KI and Kinact values for the inactivation of CYP3A4, the incubations were conducted using higher probe substrate concentrations (approximately 4-fold Km values) and various concentrations of lysionotin (0–50 μM) after different preincubation times (0–30 min), with a two-step incubation scheme, as described above. The value of KI and Kinact was calculated with the equation 1/Kobs = KI/Kinact*1/[I] + 1/Kinact. Where Kobs is the pseudo-first-order rate constant of inactivation at inactivated concentration [I], Kinact is the maximum inactivation rate (a theoretical value that cannot be experimentally observed), and KI is the inactivated concentration when the rate of inactivation reaches half of Kinact.

CYP2E1 = molecular target: T6, CYP2E1 (Homo sapiens, UniProt P05181); assay: CYP2E1 inhibition in pooled human liver microsomes (chlorzoxazone 6-hydroxylation); conditions: 100 μM lysionotin, pooled HLMs, p > 0.05
T6 construct: Pooled HLMs were purchased from BD Biosciences Discovery Labware; tissue BD Biosciences Discovery Labware; host or cells: pooled human liver microsomes
T6 sequence (P05181 whole entry): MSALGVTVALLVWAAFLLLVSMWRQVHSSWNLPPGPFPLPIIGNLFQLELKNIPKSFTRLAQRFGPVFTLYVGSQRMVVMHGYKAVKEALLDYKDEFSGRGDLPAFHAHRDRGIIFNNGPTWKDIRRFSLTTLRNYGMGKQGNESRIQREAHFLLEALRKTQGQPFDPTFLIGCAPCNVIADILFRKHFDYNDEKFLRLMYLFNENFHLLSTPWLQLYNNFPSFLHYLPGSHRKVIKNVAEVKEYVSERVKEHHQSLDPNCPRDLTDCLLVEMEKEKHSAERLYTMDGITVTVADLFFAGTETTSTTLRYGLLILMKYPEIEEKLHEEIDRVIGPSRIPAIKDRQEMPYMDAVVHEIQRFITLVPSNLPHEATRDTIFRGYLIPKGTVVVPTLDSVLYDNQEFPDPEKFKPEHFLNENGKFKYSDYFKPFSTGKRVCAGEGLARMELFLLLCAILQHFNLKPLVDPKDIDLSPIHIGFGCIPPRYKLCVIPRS
Experimental: as §1, §2

effect on the activity of CYP2A6 (CYP2A6): not affected
activity of CYP2C19 decreased by (CYP2C19; 100 μM lysionotin, pooled HLMs): 74.86%
inhibition model of CYP2C19 (CYP2C19): competitively
inhibition model of CYP2C19 (CYP2C19; listed as Lysionotin): competitive
Ki (CYP2C19; competitive model, mephenytoin 50–200 μM, lysionotin 0–50 μM, pooled HLM): 12.4 µM
IC50 (CYP2C19; pooled HLMs, S-mephenytoin 4-hydroxylation): 25 µM
effect on the activity of CYP2C9 (CYP2C9): not affected
effect on the activity of CYP1A2 (CYP1A2): not affected
effect of incubation time on the inhibition of CYP3A4 (CYP3A4; 20 μM lysionotin, 0–30 min): time-dependent
CYP3A4 inactivated every minute (CYP3A4; during incubation with lysionotin): about 4.8%
KI (inactivation) (CYP3A4; human, human liver microsomes, probe testosterone (approximately 4-fold Km), lysionotin 0–50 μM, preincubation 0–30 min, NADPH, printed as KI/Kinact): 6.62 µM
Kinact for inactivation of CYP3A4 (CYP3A4; lysionotin 0–50 μM, preincubation 0–30 min, NADPH, printed as KI/Kinact): 0.048 min⁻¹
effect on the activity of CYP2E1 (CYP2E1): not affected
Compound: COc1ccc(-c2cc(=O)c3c(O)c(OC)c(O)c(OC)c3o2)cc1 [lysionotin, Lysionotin]
